Columns and labels:
[1] = Biological activity level of mycolactones (test not specified)
H460 lung cancer cells = assay: National Cancer Institute growth testing, H460; format: cell-based
Description: (§1) Acetone-soluble lipids (ASLs) were prepared from intact M. ulcerans cells as in Example 1, except that the acetone resuspension was applied to a preparative TLC plate to allow substantial separation of the ASLs based on relative mobility in the TLC system. The ASL with a mobility of 0.23 relative to the solvent front was scraped from the plate and resuspended.

[2] = tested on: MCF-7 breast cancer cells; assay: National Cancer Institute growth testing, MCF-7; format: cell-based
Description: as §1

[3] = tested on: SF-268 central nervous system cancer cells; assay: National Cancer Institute growth testing, SF-268; format: cell-based
Description: as §1

[4] = tested on: infiltration of macrophages and polymorphonuclear neutrophils; assay: Inflammatory reaction at site of M. marinum infection in guinea pigs; format: in vivo, Hartley guinea pigs; conditions: 16 hours after infection
Description: Mycolactone was purified as in Example 2. Hartley guinea pigs were inoculated with an infectious quantity of M. marinum. When the inoculum was not accompanied by mycolactone, a painful, purulent lesion developed in the guinea pigs, indicative of an inflammatory reaction. In contrast, when mycolactone was injected into the locus, tissue necrosis still developed, but the infiltration of macrophages and polymorphonuclear neutrophils was delayed by 24 to 48 hours, resulting in greater than a 1,000-fold reduction in the number of neutrophils invading the site of infection 16 hours after infection. Inflammation, or the lack thereof, was confirmed by histopathological examination of paraffin embedded tissues stained with eosin and hematoxylin. While not desiring to be bound by any particular theory, it is believed that the subsequent inflammation that occurred in mycolactone-treated animals was partially a consequence of the continued growth of M. marinum. When the polyketide macrolides of the present invention are used to decrease inflammation at a site of infection, the inventive method is optionally accompanied by the administration of antibiotics.

## C/C1=C/C[C@H]([C@@H](C)C/C(C)=C/[C@@H](C)[C@H](O)C[C@@H](C)O)OC(=O)CCC[C@H](OC(=O)/C=C/C(C)=C/C(C)=C/C=C/C(C)=C/[C@H](O)[C@@H](O)C[C@H](C)O)[C@@H](C)C1 [B]
[1]; isomers differing at the 4′ position
  biological activity of isomers compared: same biological activity

## CC(=C/C(C)=C/C=C/C(C)=C/C(O)C(O)CC(C)O)/C=C/C(=O)OC1CCCC(=O)OC(C(C)C/C(C)=C/C(C)C(O)CC(C)O)C/C=C(\C)CC1C (stereo not drawn) [mycolactone]
H460 lung cancer cells
  relative growth rate: −72%
[2]
  relative growth rate: −78%
[3]
  relative growth rate: −79%
[4]
  reduction in the number of neutrophils invading the site of infection: > 1,000 fold

## CC(=C\C=C\C(C)=C\C[C@@H](O)C[C@H](C)O)/C=C(C)/C=C/C(=O)O[C@H]1CCCC(=O)O[C@@H]([C@@H](C)C/C(C)=C/[C@@H](C)[C@H](O)C[C@@H](C)O)C/C=C(\C)C[C@@H]1C [mycolactone C]
[1]; mycolactone found in Australian isolates
  activity level relative to the other mycolactones: about 10,000 fold lower

Source: US6680055B1, “Mycolactone and related compounds, compositions and methods of use” (priority 1999, dated 2004)
